Measurements published in patent US11702442B2, “Cyclic dinucleotide compounds as sting agonists” (The Regents of the University of California, priority 2019, dated 2023).
Entries after “also recorded” stand apart in the source; their conditions may differ.

What was measured:
STING pathway [1] = test: IRF3 phosphorylation in RAW 264.7 cells (immunoblot pIRF3 vs β-actin); assay type: cell-based, murine; details: 2 h after transfection; for IRF3 phosphorylation (pIRF3), concentration dependence: RAW 264.7, 1, 5 and 10 μM CDN
Description: FIGS. 2A-2B show IRF3 phosphorylation induced by c-di-GMP and its analogues. […] 1, 5 and 10 μM of each CDN was used to transfect RAW 264.7 cells. Cells were lysed with NP-40 lysis buffer 2 h post transfection, 20 μg of total protein was loaded on SDS-polyacrylamide gel. Proteins were transferred to PVDF membrane after gel electrophoresis, and immunoblotted against pIRF3 and β-actin. […] The y-axis indicates relative intensity of pIRF3 compare to β-actin.
To analyze the immunostimulatory effects of all synthetic CDNs in greater detail, RAW 264.7 cells were treated with various concentrations of c-di-GMP, c-di-tzGMP, c-di-thGMP, c-GthGMP and c-GtzGMP and the phosphorylation of IRF3 to pIRF3 was evaluated. CDNs were thus transfected into RAW 264.7 murine cells with digitonin as described in previous studies.[7b,16] Cells were then lysed with NP-40 buffer 2 h after transfection, and total protein was collected for immunoblotting against phosphorylated IRF3 (pIRF3) and β-actin. […] Two other biological replicates produced similar trends (See FIG. S2 in Yi et al, ChemBioChem, Volume 21 (2020)).
Immunoblotting. RAW 264.7 cells were plated on 24-well plates (5×10^5 cells per well) and incubate at 37° C. for 48 h. Cells were then transfected with 1-10 μM of CDN in a permeabilization buffer containing 10 μg/mL digitonin, 50 mM HEPES, pH 7, 100 mM KCl, 3 mM MgCl2, 85 mM sucrose, 1 mM ATP, 0.1 mM DTT, 0.2% BSA for 30 mins at 37° C., then incubated with regular growth medium for 2 h. Cells were lysed with NP-40 lysis buffer containing protease inhibitor cocktail (Roche), PhosSTOP (Roche) and PMSF, and total protein was collected and quantified by BCA assay. Protein extracts were resolved by SDS-PAGE with 7.5% gel and transferred to PVDF membrane. Proteins were detected with the following primary antibodies: rabbit anti-pIRF3 monoclonal antibody (Cell Signaling Technology), mouse anti-β actin monoclonal antibody (Sigma-Aldrich).

STING pathway [2] = test: IFN-β mRNA production in RAW 264.7 cells by RT-qPCR; assay type: cell-based, murine; details: for time post transfection of highest IFN-β mRNA production: RAW 264.7, 1, 5 and 10 μM CDN, 2, 4 and 6 h tested; for order of IFN-β induction: RAW 264.7, RT-qPCR, FIG. 3; for IFN-β mRNA production / IFN response: RAW 264.7, 1, 5, 10 μM CDN, 2, 4, 6 h
Description: FIGS. 3A-3C provide IFN data. […] RAW 264.7 cells were transfected with 1, 5, 10 μM of c-di-GMP, c-di-^tzGMP, c-G^thGMP, c-di-G^thGMP and c-G^tzGMP, and incubated for 2, 4, 6 h before being lysed by TRIzol. RNA purification and RT-qPCR were conducted following the protocol described in the Experimental Section. FIG. 3B show IFN response after 2, 4, 6 h of incubation with 5 μM of CDNs. […] Two independent assays were performed in triplicates (n=2). Error bars indicate SD. See Yi et al, Tuning the Innante Immune Response to Cyclic Dinucleotides by Using Atomic Mutagenesis, ChemBioChem, Volume 21 (2020).
As most synthetic c-di-GMP analogues activated IRF3, the inventors analyzed their dose and time dependency for inducing IFN-β mRNA production by using RT-qPCR. RAW 264.7 cells were transfected with 1, 5 and 10 μM of CDNs as described above and incubated for 2, 4 and 6 h. Total RNA was isolated and used for RT-qPCR. As shown in FIGS. 3A-3B, c-di-GMP induced the most IFN-β mRNA production 4 h post transfection, whereas the highest response was observed after 2 h for c-di-tzGMP, c-GthGMP, and c-GtzGMP.
RT-qPCR. RAW 264.7 cells were plated on 48-well plates (2.5×10^5 cells per well) and transfected with CDN using the same method as above after 48 h of incubation at 37° C. Cells were then incubate with regular growth medium for designated time, and total RNA was isolated with TRIzol® reagent and purified with RNeasy mini kit (Qiagen) following the manufacturer's protocol. Following elution, RNA yields were evaluated using a Nanodrop spectrophotometer (Nanodrop technologies). RNA samples were converted to cDNA with SuperScript III First-Strand Synthesis kit (Invitrogen) with random hexamers following the manufacturer's protocol. Quantitative PCR (SYBR Green) analysis was performed in duplicates on an Applied Biosystems 7300 Real-time PCR system (Invitrogen). Transcription level of IFN-β gene of each sample was normalized to housekeeping gene TBP and then to untreated samples (UT) using the delta-delta CT method.

Compound	IRF3 phosphorylation (pIRF3) (STING pathway [1]; RAW 264.7, 1 μM CDN)	IRF3 phosphorylation (pIRF3) (STING pathway [1]; RAW 264.7, 5 and 10 μM CDN)	time post transfection of highest IFN-β mRNA production (STING pathway [2])	order of IFN-β induction (STING pathway [2])	IRF3 phosphorylation (pIRF3), concentration dependence (STING pathway [1])	IFN-β mRNA production / IFN response (STING pathway [2])	IFN-β mRNA production relative to c-di-GMP (STING pathway [2]; RAW 264.7, 5 μM CDN, 2 h incubation)
Nc1nc2c(ncn2[C@@H]2O[C@@H]3COP(=O)(O)O[C@H]4[C@@H](O)[C@H](n5cnc6c(=O)[nH]c(N)nc65)O[C@@H]4COP(=O)(O)O[C@H]3[C@H]2O)c(=O)[nH]1 [c-di-GMP, reference compound]	did not induce obvious IRF3 activation	comparable efficiency in inducing IRF3 phosphorylation	4 h	c-GthGMP>c-di-tzGMP>c-GtzGMP>c-di-GMP>c-di-thGMP			
Nc1nc2c([C@@H]3O[C@@H]4COP(=O)(O)O[C@H]5[C@@H](O)[C@H](c6snc7c(=O)[nH]c(N)nc67)O[C@@H]5COP(=O)(O)O[C@H]4[C@H]3O)snc2c(=O)[nH]1 [c-di-^tzGMP]			2 h	c-GthGMP>c-di-tzGMP>c-GtzGMP>c-di-GMP>c-di-thGMP	Increasing amounts of phosphorylated IRF3	earlier and stronger maximum IFN-β response compared to the native c-di-GMP	
Nc1nc2c([C@@H]3O[C@@H]4COP(=O)(O)O[C@H]5[C@@H](O)[C@H](n6cnc7c(=O)[nH]c(N)nc76)O[C@@H]5COP(=O)(O)O[C@H]4[C@H]3O)scc2c(=O)[nH]1 [c-G^thGMP]			2 h	c-GthGMP>c-di-tzGMP>c-GtzGMP>c-di-GMP>c-di-thGMP	no clear dose-response	highest potency; also recorded: earlier and stronger maximum IFN-β response compared to the native c-di-GMP; also recorded: strongest effect on IFN-β induction of all analogues tested; also recorded: faster and greater innate immune response relative to the native signal c-di-GMP	tenfold higher
Nc1nc2c([C@@H]3O[C@@H]4COP(=O)(O)O[C@H]5[C@@H](O)[C@H](c6scc7c(=O)[nH]c(N)nc67)O[C@@H]5COP(=O)(O)O[C@H]4[C@H]3O)scc2c(=O)[nH]1 [c-di-^thGMP]				c-GthGMP>c-di-tzGMP>c-GtzGMP>c-di-GMP>c-di-thGMP	did not trigger observable IRF3 activation at any of the concentrations tested	minimal; also recorded: essentially inactive	
